According to the supplement of paper PMC10307832:

Assays:
Test in all cases: relative viability (nuclei count vs DMSO), 5 days (fraction); higher = more cells survive
NCI-H2023 = tested on: NCI-H2023
How it was run: (§1)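 Lung cancer cell lines were pin-tool dosed in 1536-well plates on the day after seeding, with either a lone drug or a fixed anchor-drug dose plus five library-drug doses (not always all listed) in √10 steps. Nuclei were counted on 4× images after 5 days. Relative viability is the ratio of treated-well to vehicle-well nuclei counts, with each value a median of duplicate plates.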

NCI-H2087 = tested on: NCI-H2087
How it was run: as §1

LC-2-ad = tested on: LC-2-ad
How it was run: as §1

NCI-H1650 = tested on: NCI-H1650
How it was run: as §1

NCI-H460 = tested on: NCI-H460
How it was run: as §1

CAL-12T = tested on: CAL-12T
How it was run: as §1

A-427 = tested on: A-427
How it was run: as §1

NCI-H1944 = tested on: NCI-H1944
How it was run: as §1

ABC-1 = tested on: ABC-1
How it was run: as §1

NCI-H596 = tested on: NCI-H596
How it was run: as §1

NCI-H441 = tested on: NCI-H441
How it was run: as §1

NCI-H727 = tested on: NCI-H727
How it was run: as §1

BEN = tested on: BEN
How it was run: as §1

LCLC-97TM1 = tested on: LCLC-97TM1
How it was run: as §1

NCI-H520 = tested on: NCI-H520
How it was run: as §1

H3255 = tested on: H3255
How it was run: as §1

NCI-H661 = tested on: NCI-H661
How it was run: as §1

NCI-H1915 = tested on: NCI-H1915
How it was run: as §1

201T = tested on: 201T
How it was run: as §1

PC-3 [JPC-3] = tested on: PC-3 [JPC-3]
How it was run: as §1

NCI-H650 = tested on: NCI-H650
How it was run: as §1

NCI-H1651 = tested on: NCI-H1651
How it was run: as §1

COc1cc2nccc(Oc3ccc(NC(=O)Nc4cc(C)on4)c(Cl)c3)c2cc1OC [Tivozanib] + O=C(CCCCCCC(=O)Nc1ccccc1)NO [Vorinostat] (partner 1 µM)
relative viability (NCI-H2023; first compound 0.005 µM): 0.488 | relative viability (NCI-H2023; first compound 0.01581 µM): 0.694 | relative viability (NCI-H2023; first compound 0.05 µM): 0.703 | relative viability (NCI-H2023; first compound 0.1581 µM): 0.48 | relative viability (NCI-H2023; first compound 0.5 µM): 0.441 | relative viability (NCI-H2087; first compound 0.005 µM): 0.917 | relative viability (NCI-H2087; first compound 0.01581 µM): 0.685 | relative viability (NCI-H2087; first compound 0.05 µM): 0.663 | relative viability (NCI-H2087; first compound 0.1581 µM): 0.698 | relative viability (NCI-H2087; first compound 0.5 µM): 0.428 | relative viability (LC-2-ad; first compound 0.005 µM): 0.704 | relative viability (LC-2-ad; first compound 0.01581 µM): 0.734 | relative viability (LC-2-ad; first compound 0.05 µM): 0.694 | relative viability (LC-2-ad; first compound 0.1581 µM): 0.592 | relative viability (LC-2-ad; first compound 0.5 µM): 0.34 | relative viability (NCI-H1650; first compound 0.005 µM): 0.638 | relative viability (NCI-H1650; first compound 0.01581 µM): 0.529 | relative viability (NCI-H1650; first compound 0.05 µM): 0.712 | relative viability (NCI-H1650; first compound 0.1581 µM): 0.606 | relative viability (NCI-H1650; first compound 0.5 µM): 0.545 | relative viability (NCI-H460; first compound 0.005 µM): 0.651 | relative viability (NCI-H460; first compound 0.01581 µM): 0.741 | relative viability (NCI-H460; first compound 0.05 µM): 0.748 | relative viability (NCI-H460; first compound 0.1581 µM): 0.76 | relative viability (NCI-H460; first compound 0.5 µM): 0.569 | relative viability (CAL-12T; first compound 0.005 µM): 0.842 | relative viability (CAL-12T; first compound 0.01581 µM): 0.744 | relative viability (CAL-12T; first compound 0.05 µM): 0.891 | relative viability (CAL-12T; first compound 0.1581 µM): 0.539 | relative viability (CAL-12T; first compound 0.5 µM): 0.473 | relative viability (A-427; first compound 0.005 µM): 0.741 | relative viability (A-427; first compound 0.01581 µM): 0.888 | relative viability (A-427; first compound 0.05 µM): 0.824 | relative viability (A-427; first compound 0.1581 µM): 0.857 | relative viability (A-427; first compound 0.5 µM): 0.812 | relative viability (NCI-H1944; first compound 0.005 µM): 0.443 | relative viability (NCI-H1944; first compound 0.01581 µM): 0.59 | relative viability (NCI-H1944; first compound 0.05 µM): 0.534 | relative viability (NCI-H1944; first compound 0.1581 µM): 0.5 | relative viability (NCI-H1944; first compound 0.5 µM): 0.609 | relative viability (ABC-1; first compound 0.005 µM): 0.694 | relative viability (ABC-1; first compound 0.01581 µM): 1.11 | relative viability (ABC-1; first compound 0.05 µM): 1.3 | relative viability (ABC-1; first compound 0.1581 µM): 0.926 | relative viability (ABC-1; first compound 0.5 µM): 0.842 | relative viability (NCI-H596; first compound 0.005 µM): 0.618 | relative viability (NCI-H596; first compound 0.01581 µM): 0.569 | relative viability (NCI-H596; first compound 0.05 µM): 0.683 | relative viability (NCI-H596; first compound 0.5 µM): 0.716 | relative viability (NCI-H441; first compound 0.005 µM): 0.765 | relative viability (NCI-H441; first compound 0.01581 µM): 0.771 | relative viability (NCI-H441; first compound 0.05 µM): 0.743 | relative viability (NCI-H441; first compound 0.1581 µM): 0.801 | relative viability (NCI-H441; first compound 0.5 µM): 0.745 | relative viability (NCI-H727; first compound 0.005 µM): 1.15 | relative viability (NCI-H727; first compound 0.01581 µM): 1.26 | relative viability (NCI-H727; first compound 0.05 µM): 1.3 | relative viability (NCI-H727; first compound 0.1581 µM): 0.841 | relative viability (NCI-H727; first compound 0.5 µM): 1.22 | relative viability (BEN; first compound 0.005 µM): 0.577 | relative viability (BEN; first compound 0.01581 µM): 0.572 | relative viability (BEN; first compound 0.05 µM): 0.586 | relative viability (BEN; first compound 0.1581 µM): 0.527 | relative viability (BEN; first compound 0.5 µM): 0.522 | relative viability (LCLC-97TM1; first compound 0.005 µM): 0.619 | relative viability (LCLC-97TM1; first compound 0.01581 µM): 0.69 | relative viability (LCLC-97TM1; first compound 0.05 µM): 0.686 | relative viability (LCLC-97TM1; first compound 0.1581 µM): 0.732 | relative viability (LCLC-97TM1; first compound 0.5 µM): 0.323 | relative viability (NCI-H520; first compound 0.005 µM): 0.729 | relative viability (NCI-H520; first compound 0.01581 µM): 0.754 | relative viability (NCI-H520; first compound 0.05 µM): 0.691 | relative viability (NCI-H520; first compound 0.1581 µM): 0.675 | relative viability (NCI-H520; first compound 0.5 µM): 0.607 | relative viability (H3255; first compound 0.005 µM): 0.633 | relative viability (H3255; first compound 0.01581 µM): 0.794 | relative viability (H3255; first compound 0.05 µM): 0.885 | relative viability (H3255; first compound 0.1581 µM): 0.888 | relative viability (H3255; first compound 0.5 µM): 0.611 | relative viability (NCI-H661; first compound 0.005 µM): 0.782 | relative viability (NCI-H661; first compound 0.01581 µM): 0.776 | relative viability (NCI-H661; first compound 0.05 µM): 0.789 | relative viability (NCI-H661; first compound 0.1581 µM): 0.8 | relative viability (NCI-H661; first compound 0.5 µM): 0.802 | relative viability (NCI-H1915; first compound 0.005 µM): 0.488 | relative viability (NCI-H1915; first compound 0.01581 µM): 0.503 | relative viability (NCI-H1915; first compound 0.05 µM): 0.567 | relative viability (NCI-H1915; first compound 0.1581 µM): 0.391 | relative viability (NCI-H1915; first compound 0.5 µM): 0.399 | relative viability (201T; first compound 0.005 µM): 0.983 | relative viability (201T; first compound 0.01581 µM): 0.99 | relative viability (201T; first compound 0.05 µM): 1 | relative viability (201T; first compound 0.1581 µM): 0.899 | relative viability (201T; first compound 0.5 µM): 0.974 | relative viability (PC-3 [JPC-3]; first compound 0.01581 µM): 0.814 | relative viability (PC-3 [JPC-3]; first compound 0.05 µM): 0.801 | relative viability (PC-3 [JPC-3]; first compound 0.1581 µM): 0.691 | relative viability (PC-3 [JPC-3]; first compound 0.5 µM): 0.592 | relative viability (NCI-H650; first compound 0.005 µM): 0.348 | relative viability (NCI-H650; first compound 0.01581 µM): 0.379 | relative viability (NCI-H650; first compound 0.05 µM): 0.414 | relative viability (NCI-H650; first compound 0.1581 µM): 0.29 | relative viability (NCI-H650; first compound 0.5 µM): 0.296 | relative viability (NCI-H1651; first compound 0.005 µM): 0.444 | relative viability (NCI-H1651; first compound 0.01581 µM): 0.53 | relative viability (NCI-H1651; first compound 0.05 µM): 0.619 | relative viability (NCI-H1651; first compound 0.1581 µM): 0.519 | relative viability (NCI-H1651; first compound 0.5 µM): 0.471
